Assay results taken from patent US20150320770A1, “NOVEL COMPOSITIONS AND METHODS FOR TREATING PROSTATE CANCER” (Tokai Pharmaceuticals, Inc., priority 2011, published 2015).

Assay: API solubility assessment in common solvents
Assay type: physicochemical
Method: The solubility of the API was assessed in several common solvents systems to ensure obtaining the maximum API concentration for the spray drying process. […] Subsequently this binary solvent mixture was changed to the 2:1, methanol:acetone mixture due to long secondary drying times observed with the 2:1, methanol:THF system.

API Solubility (%) (2:1 Acetone:Methanol): 4.16%
API Solubility (%) (2:1 Methanol:Acetone): 7.28%
API Solubility (%) (2:1 Methanol:Tetrahydrofuran): 16.64%
API Solubility (%) (Acetone): 1.04%
API Solubility (%) (Ethanol): 4.68%
API Solubility (%) (Ethyl Acetate): 0%
API Solubility (%) (Methanol): 4.16%
API Solubility (%) (Tetrahydrofuran): 7.28%
Compound: C[C@]12CC[C@H](O)CC1=CCC1C2CC[C@]2(C)C(n3cnc4ccccc43)=CCC12 (stereo partly drawn) [Compound (1), 3-β-Hydroxy17-(1H-benzimidazol-1-yl)androsta-5,16-diene]
